One assay concerns the target T1, Interstitial collagenase (Homo sapiens, UniProt P03956).
T1 sequence (P03956 whole entry): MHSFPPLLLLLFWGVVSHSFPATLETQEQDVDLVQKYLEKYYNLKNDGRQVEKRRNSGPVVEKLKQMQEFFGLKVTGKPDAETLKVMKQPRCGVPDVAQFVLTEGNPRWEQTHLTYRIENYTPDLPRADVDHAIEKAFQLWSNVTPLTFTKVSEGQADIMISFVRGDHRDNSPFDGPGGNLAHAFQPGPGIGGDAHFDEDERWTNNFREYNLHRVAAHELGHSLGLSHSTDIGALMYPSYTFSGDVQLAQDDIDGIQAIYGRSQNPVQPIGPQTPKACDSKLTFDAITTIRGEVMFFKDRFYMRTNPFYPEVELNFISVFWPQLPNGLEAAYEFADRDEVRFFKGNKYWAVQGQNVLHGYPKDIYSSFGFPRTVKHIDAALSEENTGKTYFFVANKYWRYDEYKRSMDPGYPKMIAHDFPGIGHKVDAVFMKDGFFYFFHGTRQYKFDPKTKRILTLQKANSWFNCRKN
Kind of assay: Inhibition of matrix metalloprotease-1 (MMP-1).

In another assay the target is Collagenase 3 (Homo sapiens, UniProt P45452). In words: Inhibition of Matrix metalloprotease-13 (MMP-13).
A further assay deals with Stromelysin-1 (Homo sapiens, UniProt P08254). Kind of assay: Inhibition of matrix metalloprotease-3 (MMP-3).
The next assay has as its target Neutrophil collagenase (Homo sapiens, UniProt P22894). Kind of assay: Inhibition of Matrix metalloprotease-8.

Sequence of Stromelysin-1 (P08254 whole entry): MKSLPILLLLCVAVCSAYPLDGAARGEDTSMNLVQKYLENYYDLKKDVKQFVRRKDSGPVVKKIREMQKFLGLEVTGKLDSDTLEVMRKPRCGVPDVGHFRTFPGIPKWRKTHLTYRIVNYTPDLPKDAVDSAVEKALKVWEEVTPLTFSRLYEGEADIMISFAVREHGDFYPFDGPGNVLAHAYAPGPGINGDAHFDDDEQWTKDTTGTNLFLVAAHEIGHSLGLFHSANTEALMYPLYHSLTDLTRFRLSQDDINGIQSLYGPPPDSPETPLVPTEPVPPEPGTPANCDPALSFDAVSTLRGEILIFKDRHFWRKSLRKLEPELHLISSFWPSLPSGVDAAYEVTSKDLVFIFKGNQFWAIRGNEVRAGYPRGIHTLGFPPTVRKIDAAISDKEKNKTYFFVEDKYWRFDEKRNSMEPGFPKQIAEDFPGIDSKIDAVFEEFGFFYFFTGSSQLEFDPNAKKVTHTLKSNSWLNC
Sequence of Neutrophil collagenase (P22894 whole entry): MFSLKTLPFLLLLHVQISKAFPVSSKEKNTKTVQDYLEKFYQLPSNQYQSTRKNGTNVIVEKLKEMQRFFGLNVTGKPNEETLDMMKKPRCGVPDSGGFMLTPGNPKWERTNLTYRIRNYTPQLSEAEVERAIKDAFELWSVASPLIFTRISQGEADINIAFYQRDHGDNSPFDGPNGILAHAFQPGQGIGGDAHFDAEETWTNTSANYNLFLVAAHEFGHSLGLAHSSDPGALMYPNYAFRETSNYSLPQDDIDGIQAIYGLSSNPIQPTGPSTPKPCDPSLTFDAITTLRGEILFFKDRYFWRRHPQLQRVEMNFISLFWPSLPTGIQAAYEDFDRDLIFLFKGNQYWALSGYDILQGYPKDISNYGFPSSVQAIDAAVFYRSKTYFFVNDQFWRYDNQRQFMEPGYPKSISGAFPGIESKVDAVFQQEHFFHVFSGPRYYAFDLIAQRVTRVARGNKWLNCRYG

Regarding `COc1ccc(S(=O)(=O)CCC(C)S)cc1` (stereo not drawn), the IC50 worked out at 8000 nM against Interstitial collagenase and 32 nM at Collagenase 3.
In turn, `CCCCC(S)CCS(=O)(=O)c1ccc(OC)cc1` (stereo not drawn) came in with an IC50 at Interstitial collagenase of more than 10000 nM.
Compound `COc1ccc(S(=O)(=O)C[C@H](C)CS)cc1` had an IC50 against Interstitial collagenase of more than 10000 nM.
The same measure, in the same setting: with `COc1ccc(S(=O)(=O)CCCS)cc1` the figure was more than 10000 nM.
`O=S(=O)(CCCS)c1ccc(Oc2ccccc2)cc1`: the IC50 against Interstitial collagenase amounted to 1500 nM; at Collagenase 3, 0.5 nM; at Stromelysin-1, 500 nM; against Neutrophil collagenase, 4 nM.
On Interstitial collagenase, `COC(=O)C(S)CCS(=O)(=O)c1ccc(OC)cc1` (stereo not drawn) had an IC50 of 4000 nM.
Regarding `O=S(=O)(CCCS)c1ccc(Sc2ccccc2)cc1`, the IC50 against Interstitial collagenase is more than 10000 nM; at Stromelysin-1 it was 150 nM; against Neutrophil collagenase, 36 nM.
On Interstitial collagenase, `COc1ccc(S(=O)(=O)C(CCS)c2ccccc2)cc1` (stereo not drawn) showed an IC50 of more than 10000 nM.
As for `COc1ccc(S(=O)(=O)CC(C)(C)CS)cc1`, the IC50 against Interstitial collagenase was more than 10000 nM.
In the case of `COc1ccc(S(=O)(=O)C[C@@H](C)CS)cc1`, the IC50 came to 5000 nM against Interstitial collagenase and 250 nM at Collagenase 3.
Consider `CCCC(CCS)S(=O)(=O)c1ccc(OC)cc1` (stereo not drawn), for which, on Collagenase 3, inhibition was half-maximal at 6 nM (IC50).

The IC50 is the concentration that inhibits the measured activity by half. High values mean lower potency, low ones higher potency.
